How the values were obtained:
Type in all cases: in vivo
[1] = test system: ducksalad (Heteranthera limosa); experiment: Test B flooded paddy test; details: Heteranthera limosa, Flood, 250 g ai/ha; scale of 0 to 100 where 0 is no effect and 100 is complete control; read-out: Ducksalad plant response rating
Outline: (§1)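 Response scored visually against untreated controls, 0 = no effect and 100 = complete control, 13–15 d after treatment in the greenhouse. Compounds added to paddy water held 3 cm above soil surface. Treatment given at 2-leaf stage.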

[2] = test system: barnyardgrass (Echinochloa crus-galli); experiment: Test B flooded paddy test; details: Echinochloa crus-galli, Flood, 250 g ai/ha; scale of 0 to 100 where 0 is no effect and 100 is complete control; read-out: Barnyardgrass plant response rating
Outline: as §1

[3] = test system: sedge, umbrella (small-flower umbrella sedge, Cyperus difformis); experiment: Test B flooded paddy test; details: Cyperus difformis, Flood, 250 g ai/ha; scale of 0 to 100 where 0 is no effect and 100 is complete control; read-out: Sedge, Umbrella plant response rating
Outline: as §1

rice (Oryra sativa) = experiment: Test B flooded paddy test; details: Oryza sativa, Flood, 250 g ai/ha; scale of 0 to 100 where 0 is no effect and 100 is complete control; read-out: Rice plant response rating
Outline: as §1

[4] = test system: blackgrass (Alopecurus myosuroides); experiment: Test A postemergence; details: Alopecurus myosuroides, post-emergence, 240 h, 125 g ai/ha, Postemergence; visual injury after approximately 10 d; 0 to 100 scale where 0 is no effect and 100 is complete control; read-out: Plant response rating, Blackgrass
Outline: (§2)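 Ratings of 0 (no effect) to 100 (complete control) come from visual comparison with untreated controls roughly 10 d after treatment. Test chemicals, formulated in a non-phytotoxic solvent mixture with surfactant, were applied either as a preemergence directed soil spray on seeded soil or postemergence to one- to two-leaf plants 2 to 10 cm tall.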

Kochia (Kochia scoparia) [5] = experiment: Test A postemergence; details: Bassia scoparia, post-emergence, 240 h, 125 g ai/ha, Postemergence; visual injury after approximately 10 d; 0 to 100 scale where 0 is no effect and 100 is complete control; read-out: Plant response rating, Kochia
Outline: as §2

[6] = test system: Galium (catchweed bedstraw, Galium aparine); experiment: Test A postemergence; details: Galium, post-emergence, 240 h, 125 g ai/ha, Postemergence; visual injury after approximately 10 d; 0 to 100 scale where 0 is no effect and 100 is complete control; read-out: Plant response rating, Galium
Outline: as §2

[7] = test system: ryegrass, Italian (Italian ryegrass, Lolium multiflorum); experiment: Test A postemergence; details: Lolium multiflorum, post-emergence, 240 h, 125 g ai/ha, Postemergence; visual injury after approximately 10 d; 0 to 100 scale where 0 is no effect and 100 is complete control; read-out: Plant response rating, Ryegrass, Italian
Outline: as §2

[8] = test system: barnyardgrass (Echinochloa crus-galli); experiment: Test A postemergence; details: Echinochloa crus-galli, post-emergence, 240 h, 125 g ai/ha, Postemergence; visual injury after approximately 10 d; 0 to 100 scale where 0 is no effect and 100 is complete control; read-out: Plant response rating, Barnyardgrass
Outline: as §2

[9] = test system: wheat (Triticum aestivum); experiment: Test A postemergence; details: Triticum aestivum, post-emergence, 240 h, 125 g ai/ha, Postemergence; visual injury after approximately 10 d; 0 to 100 scale where 0 is no effect and 100 is complete control; read-out: Plant response rating, Wheat
Outline: as §2

[10] = test system: giant foxtail (Setaria faberii); experiment: Test A postemergence; details: Setaria faberi, post-emergence, 240 h, 125 g ai/ha, Postemergence; visual injury after approximately 10 d; 0 to 100 scale where 0 is no effect and 100 is complete control; read-out: Plant response rating, Foxtail, Giant
Outline: as §2

[11] = test system: pigweed (Amaranthus retroflexus); experiment: Test A postemergence; details: Amaranthus retroflexus, post-emergence, 240 h, 125 g ai/ha, Postemergence; visual injury after approximately 10 d; 0 to 100 scale where 0 is no effect and 100 is complete control; read-out: Plant response rating, Pigweed
Outline: as §2

[12] = test system: ragweed (common ragweed, Ambrosia elatior); experiment: Test A postemergence; details: Ambrosia artemisiifolia, post-emergence, 240 h, 125 g ai/ha, Postemergence; visual injury after approximately 10 d; 0 to 100 scale where 0 is no effect and 100 is complete control; read-out: Plant response rating, Ragweed
Outline: as §2

corn (Zea mays) = experiment: Test A postemergence; details: Zea mays, post-emergence, 240 h, 125 g ai/ha, Postemergence; visual injury after approximately 10 d; 0 to 100 scale where 0 is no effect and 100 is complete control
Outline: as §2

Kochia (Kochia scoparia) [13] = experiment: Test A preemergence; details: Bassia scoparia, pre-emergence, 240 h
Outline: as §2

[14] = test system: ryegrass, Italian (Italian ryegrass, Lolium multiflorum); experiment: Test A preemergence; details: Lolium multiflorum, pre-emergence, 240 h
Outline: as §2

[15] = test system: barnyardgrass (Echinochloa crus-galli); experiment: Test A preemergence; details: Echinochloa crus-galli, pre-emergence, 240 h
Outline: as §2

[16] = test system: giant foxtail (Setaria faberii); experiment: Test A preemergence; details: Setaria faberi, pre-emergence, 240 h
Outline: as §2

[17] = test system: pigweed (Amaranthus retroflexus); experiment: Test A preemergence; details: Amaranthus retroflexus, pre-emergence, 240 h
[18] = test system: ragweed (common ragweed, Ambrosia elatior); experiment: Test A preemergence; details: Ambrosia artemisiifolia, pre-emergence, 240 h
Outline: as §2

O=C1NC[C@H](c2cc(C(F)(F)F)cs2)[C@H]1C(=O)Nc1ccccc1F [Compound 960]
pest or weed control at 250 g/ha [1]: 100%
pest or weed control at 250 g/ha [2]: 20%
pest or weed control at 250 g/ha [3]: 65%
pest or weed control at 250 g/ha (rice (Oryra sativa)): 0%
pest or weed control at 125 g/ha [4]: 20%
pest or weed control at 125 g/ha (Kochia (Kochia scoparia) [5]): 0%
pest or weed control at 125 g/ha [6]: 0%
pest or weed control at 125 g/ha [7]: 30%
pest or weed control at 125 g/ha [8]: 50%
plant injury at 125 g/ha [9]: 0%
pest or weed control at 125 g/ha [10]: 20%
pest or weed control at 125 g/ha [11]: 0%
pest or weed control at 125 g/ha [12]: 0%
Corn plant response rating (crop injury, 0 = no effect, 100 = complete kill) at 125 g/ha (corn (Zea mays)): 0%
pest or weed control at 125 g/ha (Kochia (Kochia scoparia) [13]; 125 g ai/ha, Preemergence, visual injury rating after approximately 10 d, read-out: Kochia plant response rating (0 to 100 scale, 0 is no effect, 100 is complete control)): 20%
pest or weed control at 500 g/ha (Kochia (Kochia scoparia) [13]; 500 g ai/ha, preemergence, visual injury rating about 10 d after treatment, 0 to 100 scale (0 no effect, 100 complete control), read-out: Kochia plant response rating): 30%
pest or weed control at 125 g/ha ([14]; 125 g ai/ha, Preemergence, visual injury rating after approximately 10 d, read-out: Ryegrass, Italian plant response rating (0 to 100 scale, 0 is no effect, 100 is complete control)): 0%
pest or weed control at 500 g/ha ([14]; 500 g ai/ha, preemergence, visual injury rating about 10 d after treatment, 0 to 100 scale (0 no effect, 100 complete control), read-out: Ryegrass, Italian plant response rating): 0%
pest or weed control at 125 g/ha ([15]; 125 g ai/ha, Preemergence, visual injury rating after approximately 10 d, read-out: Barnyardgrass plant response rating (0 to 100 scale, 0 is no effect, 100 is complete control)): 80%
pest or weed control at 500 g/ha ([15]; 500 g ai/ha, preemergence, visual injury rating about 10 d after treatment, 0 to 100 scale (0 no effect, 100 complete control), read-out: Barnyardgrass plant response rating): 90%
pest or weed control at 125 g/ha ([16]; 125 g ai/ha, Preemergence, visual injury rating after approximately 10 d, read-out: Foxtail, Giant plant response rating (0 to 100 scale, 0 is no effect, 100 is complete control)): 70%
pest or weed control at 500 g/ha ([16]; 500 g ai/ha, preemergence, visual injury rating about 10 d after treatment, 0 to 100 scale (0 no effect, 100 complete control), read-out: Foxtail, Giant plant response rating): 90%
pest or weed control at 125 g/ha ([17]; 125 g ai/ha, Preemergence, visual injury rating after approximately 10 d, read-out: Pigweed plant response rating (0 to 100 scale, 0 is no effect, 100 is complete control)): 0%
pest or weed control at 500 g/ha ([17]; 500 g ai/ha, preemergence, visual injury rating about 10 d after treatment, 0 to 100 scale (0 no effect, 100 complete control), read-out: Pigweed plant response rating): 0%
pest or weed control at 125 g/ha ([18]; 125 g ai/ha, Preemergence, visual injury rating after approximately 10 d, read-out: Ragweed plant response rating (0 to 100 scale, 0 is no effect, 100 is complete control)): 0%
pest or weed control at 500 g/ha ([18]; 500 g ai/ha, preemergence, visual injury rating about 10 d after treatment, 0 to 100 scale (0 no effect, 100 complete control), read-out: Ragweed plant response rating): 0%

Reference: patent US12077503B2, “Substituted cyclic amides and their use as herbicides” (FMC CORPORATION, priority 2015, dated 2024)
